Columns and labels:
Format in all cases: cell-based
FKBP12 [1] = target: T1, FKBP12 (Homo sapiens, UniProt P62942); test: Degradation of endogenous FKBP12 in cancer cell lines, wild type vs FBXO22 knockout
Method: (§1) The bar graph represents quantification of the FLAG-FKBP12/HSP90 protein content. Data are presented as the mean values±s.e.m. […] HEK293T cells expressing HA-FBXO22 were treated with 0.025-15 μM 22-SLF for 8 h. The graph represents quantification of the FLAG-FKBP12/HSP90 protein content. Data are presented as the mean values (n=2 biological independent samples). […] The bar graph represents quantification of the FLAG-FKBP12/HSP90 protein content. KO, knockout; WT, wild type. Data are presented as the mean values (n=2 biological independent samples). […] The bar graph represents quantification of the FLAG-FKBP12/HSP90 protein content. Data are presented as the mean values±s.e.m. […] The result is representative of two independent experiments with similar results. WCL, whole-cell lysate; IP, immunoprecipitate.
Data is obtained from Gene Expression Profiling Interactive Analysis (GEPIA). […] KDM4A and KDM4B are two reported substrates of FBXO22.
As an F-box protein, FBXO22 is a pivotal player in the context of tumor progression. FBXO22 has many oncogenic functions, including propelling the ubiquitination and subsequent degradation of a diverse spectrum of substrates, such as histone lysine demethylase 4 subfamily KDM4A/B, methylated p53, p21, PTEN, KLF4, and LKB1. […]

FKBP12 [2] = target: T1, FKBP12; test: Western blot of FLAG-FKBP12 degradation in HEK293T cells expressing HA-FBXO22; parameters: expressed in transfected cells; host or cells: HEK293T
Method: as §1
(§2) FIGS. 3A-3H show FBXO22 C227 and C228 are involved in 22-SLF-mediated degradation of FKBP12. […] Among 5,650 quantified IA-DTB-modified peptides, four cysteines were identified on FBXO22 (C83, C117, C228, and C365). […] Data are presented as the mean values (n=2 biological independent samples for DMSO treatment; n=3 biological independent samples for 22-SLF Treatment). […] The bag graph represents quantification of the FLAG-FKBP12/HSP90 protein content. Data are presented as mean values (n=2 biological independent samples). […] The bar graph represents quantification of the FLAG-FKBP12/HSP90 protein content. Data are presented as the mean values (n=2 biological independent samples).
FIG. 11A-11B show the acrylamide variant of 22-SLF, 22a-SLF, induced the degradation of FKBP12. […] HEK293T cells expressing HA-FBXO22 were treated with 0.5, 1, or 2 μM of 22-SLF or 22a-SLF for 8 hours. The graph represents quantification of the FLAG-FKBP12/HSP90 protein content. Data are presented as mean values (n=2 biological independent samples).
Next, Western blot analysis was used to measure the degradation of FKBP12 induced by 22-SLF. To achieve this, FLAG-tagged FKBP12 and HA-tagged FBXO22 were stably overexpressed in HEK293T cells, followed by subjecting the cells to varying concentrations of 22-SLF. […] Moreover, 22-SLF's effect on FLAG-FKBP12 degradation was concentration-dependent (FIG. 2a). […] The rescue enabled by MLN4924 indicates the involvement of a Cullin-RING ligase (CRL) in the degradation process. This is consistent with FBXO22 belonging to SKP1-CUL1-F-box protein (SCF) ubiquitin ligase complexes, a subfamily of CRL. […] To provide a more comprehensive insight into 22-SLF-induced FKBP12 degradation, a dose-dependent degradation experiment using 11 concentrations of 22-SLF ranging from […] to 15 μM was conducted. This experiment enabled determination of two parameters, the Dmax value, which reached 89%, and the half-maximal degradation concentration (DC50) value, which measured at 0.5 μM (FIG. 2B). […] Collectively, this array of data supports the canonical mechanism of ligand-induced protein degradation. In this mechanism, 22-SLF orchestrates the recruitment of FBXO22 to FKBP12, culminating in the proteasomal degradation of FKBP12.
To identify the cysteine residue(s) in FBXO22 engaged with 22-SLF, HA-FBXO22-expressing HEK293T cells were treated with either DMSO or 22-SLF (2 μM, 2 hours). Using competitive cysteine-directed activity-based protein profiling (ABPP), a chemical proteomics for the measurement of target engagement, the degree of blockade of iodoacetamide-desthiobiotin (IA-DTB)-modified cysteines on FBXO22 was quantified. From a pool of 5,650 quantified IA-DTB-modified peptides, four cysteines on FBXO22 (C83, C117, C228, and C365) (FIG. 3a) were identified, with approximately 20% of FBXO22 C228 being blocked by 22-SLF treatment (FIG. 3b), indicating the potential interaction with this cysteine by 22-SLF. Consequently, C228 was mutated to alanine and HA-FBXO22 C228A-expressing HEK293T cells were generated (FIG. 3c). […]

FKBP12 [3] = target: T1, FKBP12; test: Global proteomic analysis in HEK293T cells expressing FBXO22 wildtype or C227AC228A; parameters: expressed in transfected cells; host or cells: HEK293T; conditions: 0.5 μM, 24 hours
Source text: as §2
FIGS. 9A-9B show FBXO22 C227 and C228 are involved in 22-SLF-mediated degradation of FKBP12.
Global proteomic analysis in FBXO22 wildtype- and C227AC228A-expressing HEK293T cells was conducted, comparing the effects of 22-SLF treatment on the expression level of FKBP12. […] Using this predicted human FBXO22 structure, a model structure of the interaction with the electrophilic portion of 22-SLF was conducted.

T1 sequence (P62942 whole entry): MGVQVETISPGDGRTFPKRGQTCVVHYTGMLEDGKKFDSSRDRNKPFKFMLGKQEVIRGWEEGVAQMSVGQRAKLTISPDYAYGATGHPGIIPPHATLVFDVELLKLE

Structure (SMILES): CCC(C)(C)C(=O)C(=O)N1CCCC[C@H]1C(=O)O[C@H](CCc1ccc(OC)c(OC)c1)c1cccc(OCC(=O)NCCCOCCOCCOCCCN(C(=O)CCl)C(C(=O)NCc2ccccc2)c2nc3ccccc3s2)c1 (some centres unmarked) [22-SLF]
- Degradation of endogenous FKBP12, wild-type cells (FKBP12 [1]; A549, MDA-MB-231 and PC3, 2 μM in A549): promoted degradation of endogenous FKBP12
- Degradation of endogenous FKBP12, FBXO22 knockout cells (FKBP12 [1]; A549, MDA-MB-231 and PC3 FBXO22 knockout): abolished upon FBXO22 knockout
- DC50 (FKBP12 [2]; 11 concentrations, 0.25 to 15 μM, 8 h, HEK293T expressing HA-FBXO22, read-out: half-maximal degradation concentration (DC50)): 500 nM
- Concentration dependence of FLAG-FKBP12 degradation (FKBP12 [2]; HEK293T cells expressing HA-FBXO22): concentration-dependent
- FKBP12 degradation with FBXO22 double mutant C227AC228A (FKBP12 [2]; HEK293T cells expressing the variant): completely blocked
- FKBP12 degradation with FBXO22 single mutants C227A and C228A (FKBP12 [2]; HEK293T cells expressing the variants): partially impeded
- Loss of FLAG-FKBP12 expression in cells lacking HA-FBXO22 (FKBP12 [2]; HEK293T cells without HA-FBXO22): no reduction was observed
- Dmax (FKBP12 [2]; HEK-293T, 11 concentrations, 0.25 to 15 μM, 8 h, HEK293T expressing HA-FBXO22): 89%
- Time to nearly complete FLAG-FKBP12 degradation (FKBP12 [2]; time course): ≤ 2 h
- FKBP12 degradation in global proteomics, FBXO22 C227AC228A cells (FKBP12 [3]; HEK293T HA-FBXO22 C227AC228A): no degradation observed
- Proteins degraded among 7,936 quantified proteins, FBXO22 wildtype cells (FKBP12 [3]; HEK293T HA-FBXO22 wildtype): FKBP12 was the only protein degraded
